Results as given in patent US20260224536A1, “ARYL HETEROCYCLIC KV1.3 INHIBITOR, PREPARATION METHOD THEREFOR, AND USE THEREOF” (SHANGHAI SHENSHI WISE TECHNOLOGY CO., LTD., priority 2022, published 2026).

These compounds were tested against Kv1.3 potassium channel (Homo sapiens, UniProt P22001) (assay: Whole-cell patch-clamp assay for inhibitory activity against Kv1.3 (peak current)). Conditions: HEK293 cells stably expressing Kv1.3, patch-clamp.
Assay type: cell-based
Source text: The voltage stimulation protocol for recording whole-cell Kv1.X potassium currents via patch-clamp was as follows. After formation of a whole-cell seal, the cell membrane voltage was clamped at −80 mV, and then stepped to +40 mV for 500 ms. […] The test data were acquired by EPC-10 amplifier (HEKA) and stored in the PatchMaster (HEKA) software. Recording electrodes were drawn from capillary glass tubes using a microelectrode puller. Under an inverted microscope, the recording electrode was brought into contact with the cell surface by manipulating a microelectrode manipulator. Negative-pressure suction was applied to form a GΩ seal. After formation of the […], a rapid capacitance compensation was given. The application of negative pressure was continued to rupture the cell membrane, forming a whole-cell recording mode. Then, a slow capacitance compensation was given, and the membrane capacitance and series resistance were recorded. No current leakage compensation was provided. Once the whole-cell recorded Kv1.X current stabilized, drug administration was started. Each drug concentration was allowed to act for 5 min (or until the current reached a steady state) before the next concentration was tested. Multiple concentrations were tested for each test compound. The cover glass plated with the cells was placed in a recording bath of the inverted microscope. The test compound and the compound-free extracellular fluid were allowed to sequentially flow through the recording bath from low concentrations to high concentrations using a gravity perfusion method, thus acting on the cells, and liquid exchange was performed using a vacuum pump during recording. For each cell, the current detected in the compound-free extracellular liquid was used as its own control group. The test was independently repeated three times using at least three cells per concentration. All electrophysiological experiments were performed at room temperature. […] First, the peak current after the action of each drug concentration and the peak current of the blank control were standardized and then the inhibition rate corresponding to each drug concentration was calculated Subsequently, the mean, standard deviation (SD), and standard error (SE) were calculated for the inhibition rate corresponding to each concentration. Using the above equation, the IC50 value for each compound was calculated, and the dose-dependent effect was subjected to non-linear fitting, where IC50 is the half maximal inhibitory concentration. The IC50 calculation and the curve fitting were performed using the GraphPad Prism software.

Chain of Kv1.3 potassium channel (P22001 whole entry): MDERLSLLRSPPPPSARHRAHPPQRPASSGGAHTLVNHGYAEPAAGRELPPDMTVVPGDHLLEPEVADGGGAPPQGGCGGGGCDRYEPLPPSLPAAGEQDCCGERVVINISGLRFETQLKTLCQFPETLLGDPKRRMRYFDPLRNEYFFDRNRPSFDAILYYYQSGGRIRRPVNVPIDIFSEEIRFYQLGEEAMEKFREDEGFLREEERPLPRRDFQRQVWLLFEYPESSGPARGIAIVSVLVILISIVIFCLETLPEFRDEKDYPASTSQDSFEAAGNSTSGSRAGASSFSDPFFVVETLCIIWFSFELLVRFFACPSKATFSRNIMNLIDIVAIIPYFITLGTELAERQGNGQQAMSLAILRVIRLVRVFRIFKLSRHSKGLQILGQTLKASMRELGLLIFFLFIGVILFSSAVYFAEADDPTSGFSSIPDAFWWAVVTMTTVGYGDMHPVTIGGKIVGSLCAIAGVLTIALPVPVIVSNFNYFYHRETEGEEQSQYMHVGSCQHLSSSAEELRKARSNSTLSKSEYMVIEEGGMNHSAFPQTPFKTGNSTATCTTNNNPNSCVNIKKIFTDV

Point of comparison: `Oc1ccc(Cl)c(Cl)c1[C@@H]1Cc2nnc(C(F)(F)F)n2C1` [Example 86, (S)-3,4-Dichloro-2-(3-(trifluoromethyl)-6,7-dihydro-5H-pyrrolo[2,1-c][1,2,4]triazol-6-yl)phenol], IC50 25 nM. Against it:
- CC(F)(F)c1nnc2n1C[C@H](c1c(O)ccc(Cl)c1Cl)C2 [Example 85, (S)-3,4-Dichloro-2-(3-(1,1-difluoroethyl)-6,7-dihydro-5H-pyrrolo[2,1-c][1,2,4]triazol-6-yl)phenol] — within 1.5-fold, 24.5 nM
- Oc1ccc(Cl)c(Cl)c1[C@@H]1Cc2nnc(CC(F)(F)F)n2C1 [Example 87, (S)-3,4-Dichloro-2-(3-(2,2,2-trifluoroethyl)-6,7-dihydro-5H-pyrrolo[2,1-c][1,2,4]triazol-6-yl)phenol] — within 1.5-fold, 20.7 nM
- CC1(C)CC(c2nnc3n2CC(c2c(O)ccc(Cl)c2Cl)C3)CC(C)(C)N1 (stereo not drawn) [Example 88, 3,4-Dichloro-2-(3-(2,2,6,6-tetramethylpiperidin-4-yl)-6,7-dihydro-5H-pyrrolo[2,1-c][1,2,4]triazol-6-yl)phenol] — 2.3-fold higher, 58.6 nM
- CC1(C)CC(c2nnc3n2CC(c2c(O)ccc(Cl)c2Cl)C3)CCN1 (stereo not drawn) [Example 89, 3,4-Dichloro-2-(3-(2,2-dimethylpiperidin-4-yl)-6,7-dihydro-5H-pyrrolo[2,1-c][1,2,4]triazol-6-yl)phenol] — 3-fold lower, 8.25 nM
- Oc1ccc(Cl)c(Cl)c1[C@@H]1Cc2ncc(C3CCCC3)n2C1 [Example 90, (S)-3,4-Dichloro-2-(3-cyclopentyl-6,7-dihydro-5H-pyrrolo[1,2-a]imidazol-6-yl)phenol] — 3.5-fold lower, 7.08 nM
- Oc1ccc(Cl)c(Cl)c1[C@H]1Cc2ncc(C3CCCC3)n2C1 [Example 91, (R)-3,4-dichloro-2-(3-cyclopentyl-6,7-dihydro-5H-pyrrolo[1,2-a]imidazol-6-yl)phenol] — 5.1-fold lower, 4.92 nM
- CCc1cnc2n1C[C@H](c1c(O)ccc(Cl)c1Cl)C2 [Example 92, (S)-3,4-Dichloro-2-(3-ethyl-6,7-dihydro-5H-pyrrolo[1,2-a]imidazol-6-yl)phenol] — 4.5-fold lower, 5.51 nM
- CCc1cnc2n1C[C@@H](c1c(O)ccc(Cl)c1Cl)C2 [Example 93, (R)-3,4-dichloro-2-(3-ethyl-6,7-dihydro-5H-pyrrolo[1,2-a]imidazol-6-yl)phenol] — 8-fold lower, 3.11 nM
- CC(C)N1CCC(c2cnc3n2C[C@@H](c2c(O)ccc(Cl)c2Cl)C3)CC1 [Example 95, (R)-3,4-dichloro-2-(3-(1-isopropylpiperidin-4-yl)-6,7-dihydro-5H-pyrrolo[1,2-a]imidazol-6-yl)phenol] — 4.1-fold lower, 6.06 nM
- COc1ccc(-c2cnc3n2CC(c2c(O)ccc(Cl)c2Cl)C3)cc1 (stereo not drawn) [Example 96, 3,4-Dichloro-2-(3-(4-methoxyphenyl)-6,7-dihydro-5H-pyrrolo[1,2-a]imidazol-6-yl)phenol] — 2.1-fold higher, 51.6 nM
- Cn1cc(-c2cnc3n2CC(c2c(O)ccc(Cl)c2Cl)C3)cn1 (stereo not drawn) [Example 97, 3,4-Dichloro-2-(3-(1-methyl-1H-pyrazol-4-yl)-6,7-dihydro-5H-pyrrolo[1,2-a]imidazol-6-yl)phenol] — 2.1-fold lower, 11.7 nM
- CC(C)(C)n1cc(-c2cnc3n2CC(c2c(O)ccc(Cl)c2Cl)C3)cn1 (stereo not drawn) [Example 98, 2-(3-(1-(tert-Butyl)-1H-pyrazol-4-yl)-6,7-dihydro-5H-pyrrolo[1,2-a]imidazol-6-yl)-3,4-dichlorophenol] — within 1.5-fold, 25.5 nM
- CC(C)N1CCN(c2cnc3n2CC(c2c(O)ccc(Cl)c2Cl)C3)CC1 (stereo not drawn) [Example 100, 3,4-Dichloro-2-(3-(4-isopropylpiperazin-1-yl)-6,7-dihydro-5H-pyrrolo[1,2-a]imidazol-6-yl)phenol] — 2.5-fold lower, 9.89 nM
- Oc1ccc(Cl)c(Cl)c1C1Cc2nnc(N3CCOCC3)n2C1 (stereo not drawn) [Example 101, 3,4-Dichloro-2-(3-morpholino-6,7-dihydro-5H-pyrrolo[2,1-c][1,2,4]triazol-6-yl)phenol] — 2.6-fold lower, 9.8 nM
- CC(C)N1CCC(Oc2nnc3n2CC(c2c(O)ccc(Cl)c2Cl)C3)CC1 (stereo not drawn) [Example 102, 3,4-dichloro-2-(3-((1-isopropylpiperidin-4-yl)oxy)-6,7-dihydro-5H-pyrrolo[2,1-c][1,2,4]triazol-6-yl)phenol] — 3.6-fold lower, 6.99 nM
- CC(C)N1CCC(n2nc3n(c2=O)C[C@H](c2c(O)ccc(Cl)c2Cl)C3)CC1 [Example 103, (S)-6-(2,3-dichloro-6-hydroxyphenyl)-2-(1-isopropylpiperidin-4-yl)-2,5,6,7-tetrahydro-3H-pyrrolo[2,1-c][1,2,4]triazol-3-one] — 3.3-fold lower, 7.68 nM
- CC(C)N1CCC(n2nc3n(c2=O)C[C@@H](c2c(O)ccc(Cl)c2Cl)C3)CC1 [Example 104, (R)-6-(2,3-dichloro-6-hydroxyphenyl)-2-(1-isopropylpiperidin-4-yl)-2,5,6,7-tetrahydro-3H-pyrrolo[2,1-c][1,2,4]triazol-3-one] — 3.6-fold lower, 6.93 nM
- O=c1n(C2CCNCC2)nc2n1CC(c1c(O)ccc(Cl)c1Cl)C2 (stereo not drawn) [Example 105, 6-(2,3-Dichloro-6-hydroxyphenyl)-2-(piperidin-4-yl)-2,5,6,7-tetrahydro-3H-pyrrolo[2,1-c][1,2,4]triazol-3-one] — 4.2-fold lower, 5.93 nM
- CCn1nc2n(c1=O)C[C@H](c1c(O)ccc(Cl)c1Cl)C2 [Example 106, (S)-6-(2,3-Dichloro-6-hydroxyphenyl)-2-ethyl-2,5,6,7-tetrahydro-3H-pyrrolo[2,1-c][1,2,4]triazol-3-one] — within 1.5-fold, 29.8 nM
- O=c1n(CC(F)F)nc2n1C[C@H](c1c(O)ccc(Cl)c1Cl)C2 [Example 107, (S)-6-(2,3-Dichloro-6-hydroxyphenyl)-2-(2,2-difluoroethyl)-2,5,6,7-tetrahydro-3H-pyrrolo[2,1-c][1,2,4]triazol-3-one] — within 1.5-fold, 31 nM
- O=c1n(C2CCOCC2)nc2n1C[C@H](c1c(O)ccc(Cl)c1Cl)C2 [Example 108, (S)-6-(2,3-Dichloro-6-hydroxyphenyl)-2-(tetrahydro-2H-pyran-4-yl)-2,5,6,7-tetrahydro-3H-pyrrolo[2,1-c][1,2,4]triazol-3-one] — within 1.5-fold, 27.8 nM
- O=c1n([C@H]2CCOC2)nc2n1C[C@H](c1c(O)ccc(Cl)c1Cl)C2 [Example 109, (S)-6-(2,3-Dichloro-6-hydroxyphenyl)-2-((S)-tetrahydrofuran-3-yl)-2,5,6,7-tetrahydro-3H-pyrrolo[2,1-c][1,2,4]triazol-3-one] — within 1.5-fold, 31.7 nM
- O=c1n([C@@H]2CCOC2)nc2n1C[C@H](c1c(O)ccc(Cl)c1Cl)C2 [Example 110, (S)-6-(2,3-dichloro-6-hydroxyphenyl)-2-((R)-tetrahydrofuran-3-yl)-2,5,6,7-tetrahydro-3H-pyrrolo[2,1-c][1,2,4]triazol-3-one] — within 1.5-fold, 20.1 nM
- Oc1ccc(Cl)c(Cl)c1[C@@H]1Cc2nnc(-c3ccnc(C(F)(F)F)c3)n2C1 [Example 111, (S)-3,4-Dichloro-2-(3-(2-(trifluoromethyl)pyridin-4-yl)-6,7-dihydro-5H-pyrrolo[2,1-c][1,2,4]triazol-6-yl)phenol] — 1.7-fold lower, 14.4 nM
- CCn1cc2c(n1)CC(c1c(O)ccc(Cl)c1Cl)C2 (stereo not drawn) [Example 112, 3,4-Dichloro-2-(2-ethyl-2,4,5,6-tetrahydrocyclopenta[c]pyrazol-5-yl)phenol] — 1.7-fold higher, 43.1 nM
- CCc1c2c(nn1C)CC(c1c(O)ccc(Cl)c1Cl)C2 (stereo not drawn) [Example 113, 3,4-Dichloro-2-(3-ethyl-2-methyl-2,4,5,6-tetrahydrocyclopenta[c]pyrazol-5-yl)phenol] — 2.3-fold higher, 57.9 nM
- CCc1nn(C)c2c1C[C@H](c1c(O)ccc(Cl)c1Cl)C2 [Example 115, (S)-3,4-Dichloro-2-(3-ethyl-1-methyl-1,4,5,6-tetrahydrocyclopenta[c]pyrazol-5-yl)phenol] — 2.4-fold higher, 58.8 nM
- CCc1nn(C)c2c1C[C@@H](c1c(O)ccc(Cl)c1Cl)C2 [Example 116, (R)-3,4-dichloro-2-(3-ethyl-1-methyl-1,4,5,6-tetrahydrocyclopenta[c]pyrazol-5-yl)phenol] — 1.8-fold higher, 44.1 nM
- CCn1ncc2c1C[C@@H](c1c(O)ccc(Cl)c1Cl)C2 [Example 117, (S)-3,4-dichloro-2-(1-ethyl-1,4,5,6-tetrahydrocyclopenta[c]pyrazol-5-yl)phenol] — 2.6-fold higher, 65 nM
- Oc1ccc(Br)c(Br)c1C1Cc2nnc([C@@H]3CCOC3)n2C1 (stereo partly drawn) [Example 119, 3,4-Dibromo-2-(3-((S)-tetrahydrofuran-3-yl)-6,7-dihydro-5H-pyrrolo[2,1-c][1,2,4]triazol-6-yl)phenol] — 3.8-fold lower, 6.54 nM
- Oc1ccc(Br)c(Cl)c1C1Cc2nnc([C@@H]3CCOC3)n2C1 (stereo partly drawn) [Example 120, (S)-4-Bromo-3-chloro-2-(3-(tetrahydrofuran-3-yl)-6,7-dihydro-5H-pyrrolo[2,1-c][1,2,4]triazol-6-yl)phenol] — within 1.5-fold, 20.2 nM
- CC(C)N1CCN(C(=O)c2cnc3n2C[C@H](c2c(O)ccc(Cl)c2Cl)C3)CC1 [Example 121, (S)-(6-(2,3-Dichloro-6-hydroxyphenyl)-6,7-dihydro-5H-pyrrolo[1,2-a]imidazol-3-yl)(4-isopropylpiperazin-1-yl)methanone] — 2.6-fold lower, 9.68 nM
